ChEMBL document CHEMBL5029170, “Discovery of novel triazole compounds as selective IL-1β releasement inhibitors” (Bioorg Med Chem Lett, 2021)
The source made the active and inactive calls. No cut-off for these calls is given here.

target: NACHT, LRR and PYD domains-containing protein 3 (Mus musculus) (UniProt Q8R4B8); assay: Inhibition of NLRP3 inflammasome activation in LPS-primed immortalized mouse BMDM cells assessed as effect on ATP-induced pro-IL-1beta level in cell lysate at 5 to 20 uM by western blot analysis; type: subcellular; details: dose 5-20 µM
Sequence (Q8R4B8 whole entry, the tested form may be a part): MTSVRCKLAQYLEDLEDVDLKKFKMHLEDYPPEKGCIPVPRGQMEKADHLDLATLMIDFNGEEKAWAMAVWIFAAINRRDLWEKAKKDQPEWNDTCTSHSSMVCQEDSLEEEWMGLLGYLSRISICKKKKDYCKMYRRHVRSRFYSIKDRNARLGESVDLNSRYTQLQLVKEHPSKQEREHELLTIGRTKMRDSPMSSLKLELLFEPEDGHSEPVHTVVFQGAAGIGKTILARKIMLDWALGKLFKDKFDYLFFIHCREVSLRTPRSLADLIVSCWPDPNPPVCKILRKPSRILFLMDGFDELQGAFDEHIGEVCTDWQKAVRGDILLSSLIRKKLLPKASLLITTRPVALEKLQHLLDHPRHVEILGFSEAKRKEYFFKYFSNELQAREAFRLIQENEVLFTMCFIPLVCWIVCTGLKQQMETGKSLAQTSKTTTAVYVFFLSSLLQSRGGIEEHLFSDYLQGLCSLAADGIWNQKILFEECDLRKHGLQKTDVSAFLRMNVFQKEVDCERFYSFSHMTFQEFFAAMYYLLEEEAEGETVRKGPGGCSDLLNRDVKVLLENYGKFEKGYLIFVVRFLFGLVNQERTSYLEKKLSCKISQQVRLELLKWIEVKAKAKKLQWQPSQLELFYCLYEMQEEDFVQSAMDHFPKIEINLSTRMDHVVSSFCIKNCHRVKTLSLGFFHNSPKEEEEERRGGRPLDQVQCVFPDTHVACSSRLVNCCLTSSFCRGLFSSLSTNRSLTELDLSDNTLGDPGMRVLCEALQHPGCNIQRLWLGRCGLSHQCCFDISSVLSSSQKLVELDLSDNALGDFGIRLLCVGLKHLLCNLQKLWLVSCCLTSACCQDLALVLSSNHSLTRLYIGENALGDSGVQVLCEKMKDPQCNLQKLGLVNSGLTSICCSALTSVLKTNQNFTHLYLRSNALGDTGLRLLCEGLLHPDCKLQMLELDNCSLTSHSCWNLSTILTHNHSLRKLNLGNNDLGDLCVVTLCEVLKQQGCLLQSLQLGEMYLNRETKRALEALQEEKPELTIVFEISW

With CNc1c(C(N)=O)nnn1Cc1cc(Cl)c(C(=O)c2ccc(Cl)cc2)c(Cl)c1 the inhibition was “inactive”.

tested on: not listed separately; assay: Antiinflammatory activity in mouse BMDM cells assessed as inhibition of TNF-alpha production relative to control; type: functional; details: not given

Point of comparison: Nc1c(C(=O)N2CCCC2)nnn1Cc1cc(Cl)c(C(=O)c2ccc(Cl)cc2)c(Cl)c1, “inhibition (INH)” value 51.44%. Against it:
- CCNC(=O)c1nnn(Cc2cc(Cl)c(C(=O)c3ccc(Cl)cc3)c(Cl)c2)c1N — higher, 75.89%
- CNC(=O)c1nnn(Cc2cc(Cl)c(C(=O)c3ccc(Cl)cc3)c(Cl)c2)c1N — lower, 46.35%
- Nc1c(C(=O)NCCOCCOCCO)nnn1Cc1cc(Cl)c(C(=O)c2ccc(Cl)cc2)c(Cl)c1 — lower, 8.04%
- CCC(=O)Nc1c(C(N)=O)nnn1Cc1cc(Cl)c(C(=O)c2ccc(Cl)cc2)c(Cl)c1 — lower, 14.25%
- NC(=O)c1nnn(Cc2ccc(C(=O)c3ccccc3)cc2)c1N — lower, -16.37%
- Nc1c(C(=O)NCc2ccccc2)nnn1Cc1cc(Cl)c(C(=O)c2ccc(Cl)cc2)c(Cl)c1 — lower, 7.59%
- CC(C)(C)C(=O)N(C(=O)C(C)(C)C)c1c(C(N)=O)nnn1Cc1cc(Cl)c(C(=O)c2ccc(Cl)cc2)c(Cl)c1 — lower, 17.92%
- CCCC(=O)Nc1c(C(N)=O)nnn1Cc1cc(Cl)c(C(=O)c2ccc(Cl)cc2)c(Cl)c1 — lower, 47.9%
- NC(=O)c1nnn(Cc2cc(Cl)c(C(=O)c3ccc(Cl)cc3)c(Cl)c2)c1N [CARBOXYAMIDOTRIAZOLE] — higher, 87.54%
- NC(=O)c1nnn(Cc2cc(Cl)c(C(=O)c3ccc(Cl)cc3)c(Cl)c2)c1NC(=O)c1ccccc1 — higher, 86.58%
- CN(C)C(=O)c1nnn(Cc2cc(Cl)c(C(=O)c3ccc(Cl)cc3)c(Cl)c2)c1N — higher, 57.9%
- NC(=O)c1nnn(Cc2cc(Cl)c(C(=O)c3ccc(Cl)cc3)c(Cl)c2)c1NC(=O)CCBr — higher, 81.52%
- COC(=O)c1nnn(Cc2cc(Cl)c(C(=O)c3ccc(Cl)cc3)c(Cl)c2)c1N — lower, -6.83%
- CC(C)C(=O)Nc1c(C(N)=O)nnn1Cc1cc(Cl)c(C(=O)c2ccc(Cl)cc2)c(Cl)c1 — lower, 7.91%
- NC(=O)c1nnn(Cc2ccc(-c3ccccc3)cc2)c1N — lower, 0.39%
- CCNc1c(C(N)=O)nnn1Cc1cc(Cl)c(C(=O)c2ccc(Cl)cc2)c(Cl)c1 — higher, 57.8%
- CNc1c(C(N)=O)nnn1Cc1cc(Cl)c(C(=O)c2ccc(Cl)cc2)c(Cl)c1 — lower, 15.53%

target: NACHT, LRR and PYD domains-containing protein 3 (Mus musculus) (UniProt Q8R4B8); assay: Inhibition of NLRP3 inflammasome activation in LPS-primed immortalized mouse BMDM cells assessed as effect on ATP-induced NLRP3 level in cell lysate at 5 to 20 uM by western blot analysis; type: subcellular; details: dose 5-20 µM

For CNc1c(C(N)=O)nnn1Cc1cc(Cl)c(C(=O)c2ccc(Cl)cc2)c(Cl)c1, the inhibition was “inactive”.

target: NACHT, LRR and PYD domains-containing protein 3 (Mus musculus) (UniProt Q8R4B8); assay: Inhibition of NLRP3 inflammasome activation in LPS-primed immortalized mouse BMDM cells assessed as inhibition of LPS/ATP induced IL-1beta release by ELISA; type: cell-based; details: not given

For CNc1c(C(N)=O)nnn1Cc1cc(Cl)c(C(=O)c2ccc(Cl)cc2)c(Cl)c1, the inhibition was “Dose-Dependent Effect”.

tested on: not listed separately; assay: Selectivity index, ratio of IC50 for antiinflammatory activity in mouse BMDM cells assessed as inhibition of TNF-alpha production to IC50 for antiinflammatory activity in mouse BMDM cells assessed as inhibition of IL1-beta production; type: functional; details: not given

Point of comparison: CCCC(=O)Nc1c(C(N)=O)nnn1Cc1cc(Cl)c(C(=O)c2ccc(Cl)cc2)c(Cl)c1, “Ratio IC50” value 2.25. Against it:
- NC(=O)c1nnn(Cc2cc(Cl)c(C(=O)c3ccc(Cl)cc3)c(Cl)c2)c1NC(=O)CCBr — lower, 1.96

In the case of CNc1c(C(N)=O)nnn1Cc1cc(Cl)c(C(=O)c2ccc(Cl)cc2)c(Cl)c1, the “Ratio IC50” value is reported as over 18.22.

tested on: not listed separately; assay: Selectivity index, ratio of antiinflammatory activity in mouse BMDM cells assessed as inhibition of TNF-alpha production to antiinflammatory activity in mouse BMDM cells assessed as inhibition of IL1-beta production; type: functional; details: not given

Point of comparison: NC(=O)c1nnn(Cc2cc(Cl)c(C(=O)c3ccc(Cl)cc3)c(Cl)c2)c1NC(=O)CCBr, “Selectivity Index” value 1.07. Against it:
- CCNC(=O)c1nnn(Cc2cc(Cl)c(C(=O)c3ccc(Cl)cc3)c(Cl)c2)c1N — lower, 0.71
- CNC(=O)c1nnn(Cc2cc(Cl)c(C(=O)c3ccc(Cl)cc3)c(Cl)c2)c1N — higher, 1.26
- Nc1c(C(=O)NCCOCCOCCO)nnn1Cc1cc(Cl)c(C(=O)c2ccc(Cl)cc2)c(Cl)c1 — higher, 5.3
- CCC(=O)Nc1c(C(N)=O)nnn1Cc1cc(Cl)c(C(=O)c2ccc(Cl)cc2)c(Cl)c1 — higher, 3.33
- Nc1c(C(=O)NCc2ccccc2)nnn1Cc1cc(Cl)c(C(=O)c2ccc(Cl)cc2)c(Cl)c1 — higher, 2.8
- CCCC(=O)Nc1c(C(N)=O)nnn1Cc1cc(Cl)c(C(=O)c2ccc(Cl)cc2)c(Cl)c1 — higher, 1.56
- Nc1c(C(=O)N2CCCC2)nnn1Cc1cc(Cl)c(C(=O)c2ccc(Cl)cc2)c(Cl)c1 — lower, 0.65
- NC(=O)c1nnn(Cc2cc(Cl)c(C(=O)c3ccc(Cl)cc3)c(Cl)c2)c1N [CARBOXYAMIDOTRIAZOLE] — lower, 0.82
- NC(=O)c1nnn(Cc2cc(Cl)c(C(=O)c3ccc(Cl)cc3)c(Cl)c2)c1NC(=O)c1ccccc1 — lower, 0.53
- CN(C)C(=O)c1nnn(Cc2cc(Cl)c(C(=O)c3ccc(Cl)cc3)c(Cl)c2)c1N — lower, 0.75
- COC(=O)c1nnn(Cc2cc(Cl)c(C(=O)c3ccc(Cl)cc3)c(Cl)c2)c1N — higher, 2.72
- CC(C)C(=O)Nc1c(C(N)=O)nnn1Cc1cc(Cl)c(C(=O)c2ccc(Cl)cc2)c(Cl)c1 — higher, 3.88
- CCNc1c(C(N)=O)nnn1Cc1cc(Cl)c(C(=O)c2ccc(Cl)cc2)c(Cl)c1 — lower, 1
- CNc1c(C(N)=O)nnn1Cc1cc(Cl)c(C(=O)c2ccc(Cl)cc2)c(Cl)c1 — higher, 3.71

target: NACHT, LRR and PYD domains-containing protein 3 (Mus musculus) (UniProt Q8R4B8); assay: Inhibition of NLRP3 inflammasome activation in LPS-primed immortalized mouse BMDM cells assessed as reduction in ATP-induced cleaved caspase-1 expression in supernatant at 5 to 20 uM by western blot analysis; type: cell-based; details: dose 5-20 µM

In the case of CNc1c(C(N)=O)nnn1Cc1cc(Cl)c(C(=O)c2ccc(Cl)cc2)c(Cl)c1, the inhibition is reported as “Active”.

target: NACHT, LRR and PYD domains-containing protein 3 (Mus musculus) (UniProt Q8R4B8); assay: Inhibition of NLRP3 inflammasome activation in LPS-primed mouse BMDM cells assessed as inhibition of LPS/ATP induced IL-1beta release by ELISA; type: cell-based; details: not given

For CNc1c(C(N)=O)nnn1Cc1cc(Cl)c(C(=O)c2ccc(Cl)cc2)c(Cl)c1, the inhibition was “Dose-Dependent Effect”.

tested on: not listed separately; assay: Antiinflammatory activity in mouse BMDM cells assessed as inhibition of IL1-beta production relative to control; type: functional; details: not given

Point of comparison: NC(=O)c1nnn(Cc2ccc(C(=O)c3ccccc3)cc2)c1N, “inhibition (INH)” value 1.36%. Against it:
- CCNC(=O)c1nnn(Cc2cc(Cl)c(C(=O)c3ccc(Cl)cc3)c(Cl)c2)c1N — higher, 53.9%
- CNC(=O)c1nnn(Cc2cc(Cl)c(C(=O)c3ccc(Cl)cc3)c(Cl)c2)c1N — higher, 58.34%
- Nc1c(C(=O)NCCOCCOCCO)nnn1Cc1cc(Cl)c(C(=O)c2ccc(Cl)cc2)c(Cl)c1 — higher, 42.65%
- CCC(=O)Nc1c(C(N)=O)nnn1Cc1cc(Cl)c(C(=O)c2ccc(Cl)cc2)c(Cl)c1 — higher, 47.39%
- Nc1c(C(=O)NCc2ccccc2)nnn1Cc1cc(Cl)c(C(=O)c2ccc(Cl)cc2)c(Cl)c1 — higher, 21.22%
- CC(C)(C)C(=O)N(C(=O)C(C)(C)C)c1c(C(N)=O)nnn1Cc1cc(Cl)c(C(=O)c2ccc(Cl)cc2)c(Cl)c1 — lower, -8.41%
- CCCC(=O)Nc1c(C(N)=O)nnn1Cc1cc(Cl)c(C(=O)c2ccc(Cl)cc2)c(Cl)c1 — higher, 74.89%
- Nc1c(C(=O)N2CCCC2)nnn1Cc1cc(Cl)c(C(=O)c2ccc(Cl)cc2)c(Cl)c1 — higher, 33.52%
- NC(=O)c1nnn(Cc2cc(Cl)c(C(=O)c3ccc(Cl)cc3)c(Cl)c2)c1N [CARBOXYAMIDOTRIAZOLE] — higher, 71.94%
- NC(=O)c1nnn(Cc2cc(Cl)c(C(=O)c3ccc(Cl)cc3)c(Cl)c2)c1NC(=O)c1ccccc1 — higher, 46.29%
- CN(C)C(=O)c1nnn(Cc2cc(Cl)c(C(=O)c3ccc(Cl)cc3)c(Cl)c2)c1N — higher, 43.42%
- NC(=O)c1nnn(Cc2cc(Cl)c(C(=O)c3ccc(Cl)cc3)c(Cl)c2)c1NC(=O)CCBr — higher, 87.06%
- COC(=O)c1nnn(Cc2cc(Cl)c(C(=O)c3ccc(Cl)cc3)c(Cl)c2)c1N — higher, 18.59%
- CC(C)C(=O)Nc1c(C(N)=O)nnn1Cc1cc(Cl)c(C(=O)c2ccc(Cl)cc2)c(Cl)c1 — higher, 30.69%
- NC(=O)c1nnn(Cc2ccc(-c3ccccc3)cc2)c1N — lower, -18.17%
- CCNc1c(C(N)=O)nnn1Cc1cc(Cl)c(C(=O)c2ccc(Cl)cc2)c(Cl)c1 — higher, 57.89%
- CNc1c(C(N)=O)nnn1Cc1cc(Cl)c(C(=O)c2ccc(Cl)cc2)c(Cl)c1 — higher, 57.66%

tested on: not listed separately; assay: Antiinflammatory activity in mouse BMDM cells assessed as inhibition of TNF-alpha production; type: functional, cell-based; details: not given

Point of comparison: NC(=O)c1nnn(Cc2cc(Cl)c(C(=O)c3ccc(Cl)cc3)c(Cl)c2)c1NC(=O)CCBr, IC50 9.77 µM. Against it:
- CCCC(=O)Nc1c(C(N)=O)nnn1Cc1cc(Cl)c(C(=O)c2ccc(Cl)cc2)c(Cl)c1 — 2.7-fold higher, 26.8 µM
- CNc1c(C(N)=O)nnn1Cc1cc(Cl)c(C(=O)c2ccc(Cl)cc2)c(Cl)c1 — higher, > 100 µM

tested on: not listed separately; assay: Antiinflammatory activity in mouse BMDM cells assessed as inhibition of IL1-beta production; type: functional, cell-based; details: not given

Point of comparison: NC(=O)c1nnn(Cc2cc(Cl)c(C(=O)c3ccc(Cl)cc3)c(Cl)c2)c1NC(=O)CCBr, IC50 4.97 µM. Against it:
- CCCC(=O)Nc1c(C(N)=O)nnn1Cc1cc(Cl)c(C(=O)c2ccc(Cl)cc2)c(Cl)c1 — 2.4-fold higher, 11.9 µM
- CNc1c(C(N)=O)nnn1Cc1cc(Cl)c(C(=O)c2ccc(Cl)cc2)c(Cl)c1 — within 1.5-fold, 5.49 µM

target: NACHT, LRR and PYD domains-containing protein 3 (Mus musculus) (UniProt Q8R4B8); assay: Inhibition of NLRP3 inflammasome activation in LPS-primed immortalized mouse BMDM cells assessed as reduction in ATP-induced mature IL-1beta expression in supernatant at 5 to 20 uM by western blot analysis; type: cell-based; details: dose 5-20 µM

For CNc1c(C(N)=O)nnn1Cc1cc(Cl)c(C(=O)c2ccc(Cl)cc2)c(Cl)c1, the inhibition was “Active”.
